Laboratory results: ChEMBL document CHEMBL1140178, “Design, synthesis, and biological evaluation of novel constrained meta-substituted phenyl propanoic acids as peroxisome proliferator-activated receptor alpha and gamma dual agonists” (J Med Chem, 2008)
Activity calls are given as the source filed them. The calls are words filed in the database; no cut-off is given here.

Legend:
[1] = target: T1, Peroxisome proliferator-activated receptor alpha (Homo sapiens) (UniProt Q07869); assay: Agonist activity at human PPARalpha ligand binding domain expressed in african green monkey CV1 cells co-transfected with fused Gal4-DBD by transactivation assay relative to gemfibrozil; type: cell-based; details: CV-1
T1 sequence (whole entry): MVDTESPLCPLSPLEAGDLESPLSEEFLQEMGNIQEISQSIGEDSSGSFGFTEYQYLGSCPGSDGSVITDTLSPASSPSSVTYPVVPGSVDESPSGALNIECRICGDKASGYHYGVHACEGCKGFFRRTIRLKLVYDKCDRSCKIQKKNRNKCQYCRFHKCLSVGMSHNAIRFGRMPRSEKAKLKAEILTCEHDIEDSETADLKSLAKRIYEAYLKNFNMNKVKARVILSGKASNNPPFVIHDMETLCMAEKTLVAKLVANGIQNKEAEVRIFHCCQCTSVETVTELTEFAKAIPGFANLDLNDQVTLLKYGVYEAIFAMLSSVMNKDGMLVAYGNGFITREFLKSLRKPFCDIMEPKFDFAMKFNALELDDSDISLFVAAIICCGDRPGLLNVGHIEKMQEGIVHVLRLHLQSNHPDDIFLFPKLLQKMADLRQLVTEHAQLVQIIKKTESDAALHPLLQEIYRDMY

[2] = target: T2, Peroxisome proliferator-activated receptor alpha (Homo sapiens, UniProt Q07869); assay: (§1) Agonist activity at human PPARalpha ligand binding domain expressed in african green monkey CV1 cells co-transfected with fused Gal4-DBD by transactivation assay; type: cell-based, CV-1
T2 sequence (Q07869 whole entry): T1 sequence (whole entry)

[3] = target: T3, Peroxisome proliferator-activated receptor gamma (Homo sapiens, UniProt P37231)
T3 sequence (P37231 whole entry): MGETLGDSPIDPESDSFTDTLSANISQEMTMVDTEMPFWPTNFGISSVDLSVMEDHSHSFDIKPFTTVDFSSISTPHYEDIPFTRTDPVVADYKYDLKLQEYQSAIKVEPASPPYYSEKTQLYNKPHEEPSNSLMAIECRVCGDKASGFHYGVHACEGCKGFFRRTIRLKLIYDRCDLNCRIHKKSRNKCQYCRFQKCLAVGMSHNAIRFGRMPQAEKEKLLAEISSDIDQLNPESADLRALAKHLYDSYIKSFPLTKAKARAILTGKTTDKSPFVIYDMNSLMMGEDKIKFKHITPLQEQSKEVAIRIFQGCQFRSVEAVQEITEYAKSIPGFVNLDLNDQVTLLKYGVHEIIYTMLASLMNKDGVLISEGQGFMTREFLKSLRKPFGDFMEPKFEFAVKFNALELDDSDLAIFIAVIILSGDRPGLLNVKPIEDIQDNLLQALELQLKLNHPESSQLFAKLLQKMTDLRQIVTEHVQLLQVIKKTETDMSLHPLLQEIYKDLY
Description: Agonist activity at human PPARgamma ligand binding domain expressed in african green monkey CV1 cells co-transfected with fused Gal4-DBD by transactivation assay

[4] = tested on: Mus musculus; assay: Antihyperglycemic effect in db/db mouse assessed as inhibition of blood glucose at 3 mg/kg, po after 11 days; type: functional; details: 264 h
[5] = tested on: Mus musculus; assay: Antihyperglycemic effect in db/db mouse assessed as inhibition of blood glucose at 3 mg/kg, po after 4 days; type: functional; details: 96 h
[6] = tested on: Mus musculus; assay: Antihyperglycemic effect in db/db mouse assessed as inhibition of blood glucose at 3 mg/kg, po after 7 days; type: functional; details: 168 h
[7] = tested on: Mus musculus; assay: Toxicity in db/db mouse assessed as weight gain at 3 mg/kg, po after 7 days; type: organism-based; set-up: dose 3 mg/kg, route oral; details: in vivo, 168 h
[8] = tested on: Mus musculus; assay: Toxicity in db/db mouse assessed as weight gain at 3 mg/kg, po after 11 days; type: organism-based; set-up: dose 3 mg/kg, route oral; details: in vivo, 264 h
[9] = tested on: Mus musculus; assay: Toxicity in db/db mouse assessed as weight gain at 3 mg/kg, po after 4 days; type: organism-based; set-up: dose 3 mg/kg, route oral; details: in vivo, 96 h
[10] = tested on: CV-1; assay: Ratio of EC50 for human PPARalpha ligand binding domain expressed in african green monkey CV1 cells to EC50 for human PPARgamma ligand binding domain expressed in african green monkey CV1 cells; type: cell-based
[11] = tested on: Mus musculus; assay: Antihyperglycemic effect in db/db mouse assessed as inhibition of blood glucose at 0.3 mg/kg, po after 7 days; type: functional; details: 168 h
[12] = tested on: Mus musculus; assay: Antihyperglycemic effect in db/db mouse assessed as inhibition of blood glucose at 0.3 mg/kg, po after 11 days; type: functional; details: 264 h
[13] = tested on: Mus musculus; assay: Toxicity in db/db mouse assessed as weight gain at 0.3 mg/kg, po after 4 days; type: organism-based; set-up: dose 0.3 mg/kg, route oral; details: in vivo, 96 h
[14] = tested on: Mus musculus; assay: Toxicity in db/db mouse assessed as weight gain at 0.3 mg/kg, po after 7 days; type: organism-based; set-up: dose 0.3 mg/kg, route oral; details: in vivo, 168 h
[15] = tested on: Mus musculus; assay: Antihyperglycemic effect in db/db mouse assessed as inhibition of blood glucose at 0.3 mg/kg, po after 5 days; type: functional; details: 120 h
[16] = tested on: Mus musculus; assay: Antihyperglycemic effect in db/db mouse assessed as inhibition of blood glucose at 0.3 mg/kg, po after 4 days; type: functional; details: 96 h
[17] = tested on: Mus musculus; assay: Antihyperglycemic effect in db/db mouse assessed as inhibition of blood glucose at 3 mg/kg, po after 5 days; type: functional; details: 120 h
[18] = tested on: Mus musculus; assay: Toxicity in db/db mouse assessed as weight gain at 0.3 mg/kg, po after 11 days; type: organism-based; set-up: dose 0.3 mg/kg, route oral; details: in vivo, 264 h
[19] = tested on: Mus musculus; assay: Antihyperglycemic effect in db/db mouse assessed as inhibition of blood glucose at 20 mg/kg, po after 5 days; type: functional; details: 120 h
[20] = target: T1, Peroxisome proliferator-activated receptor alpha (Homo sapiens); assay: as §1; type: cell-based; details: CV-1

Structure (SMILES)	Emax [1] [%]	EC50 [2] [µM]	EC50 [3] [nM]	also measured
Cc1ccc(C)c(OCCCC(C)(C)C(=O)O)c1	100	–	–	–
CN(CCOc1ccc(CC2SC(=O)NC2=O)cc1)c1ccccn1 (stereo not drawn)	56	–	–	–
CCO[C@@H](Cc1cccc(C2=NOC(c3ccc(OS(C)(=O)=O)cc3)C2)c1)C(=O)O (stereo partly drawn)	107	37.4	28100	–
CCO[C@@H](Cc1cccc(/C(C)=N/OCc2ccccc2)c1)C(=O)O	71	2.91	121	–
COc1ccc(OC(=O)N(CC(=O)O)Cc2ccc(OCCc3nc(-c4ccccc4)oc3C)cc2)cc1 [MURAGLITAZAR]	–	–	–	inhibition in vivo at 3 mg/kg [4]: 68%; inhibition in vivo at 3 mg/kg [5]: 53%; inhibition in vivo at 3 mg/kg [6]: 67%; Activity [7]: 3.6 g; Activity [8]: 6.3 g; Activity [9]: 2 g
CCO[C@@H](Cc1cccc(/C(C)=N/OCc2ccccc2Cl)c1)C(=O)O	143	3.26	26	Ratio EC50 [10]: 126
CCO[C@@H](Cc1cccc(/C(C)=N/OCc2ccc(C(C)(C)C)cc2)c1)C(=O)O	137	12.1	279	–
CCO[C@@H](Cc1cccc(/C(C)=N/OCc2ccc(C(F)(F)F)cc2)c1)C(=O)O	185	2.95	46	–
CCO[C@H](Cc1cccc(-c2cc(-c3ccccc3)on2)c1)C(=O)O	48	30.4	37400	–
CCO[C@@H](Cc1cccc(C2=NOC(c3ccc(Br)cc3)C2)c1)C(=O)O (stereo partly drawn)	144	4.39	740	–
CCO[C@@H](Cc1cccc(C2=NOC(c3ccc(C(C)(C)C)cc3)C2)c1)C(=O)O (stereo partly drawn)	138	3.95	2730	–
CCO[C@@H](Cc1cccc(C2=NOC(c3ccc(I)cc3)C2)c1)C(=O)O (stereo partly drawn)	162	2.76	606	–
CCO[C@@H](Cc1cccc(-c2cc(-c3ccccc3)on2)c1)C(=O)O	162	5.6	3290	–
CCO[C@@H](Cc1cccc(C2=NOC(c3ccc(O)cc3)C2)c1)C(=O)O (stereo partly drawn)	0	–	38600	–
CCO[C@@H](Cc1cccc(C2=NOC(c3ccc(F)cc3)C2)c1)C(=O)O (stereo partly drawn)	119	24.4	1160	–
CCO[C@@H](Cc1cccc(/C(C)=N/OCc2ccc(F)cc2)c1)C(=O)O	299	5.9	139	inhibition in vivo at 0.3 mg/kg [11]: 58%; inhibition in vivo at 0.3 mg/kg [12]: 68%; Activity [13]: 1.9 g; inhibition in vivo at 3 mg/kg [4]: 71%; Activity [14]: 3.6 g; inhibition in vivo at 3 mg/kg [5]: 64%; inhibition in vivo at 0.3 mg/kg [15]: 40.7%; inhibition in vivo at 3 mg/kg [6]: 73%; Activity [7]: 3.6 g; inhibition in vivo at 0.3 mg/kg [16]: 39%; inhibition in vivo at 3 mg/kg [17]: 61%; Activity [8]: 5.6 g; Activity [9]: 2.1 g; Activity [18]: 5.6 g
CCO[C@@H](Cc1cccc(C2=NOC(c3ccccc3)C2)c1)C(=O)O (stereo partly drawn)	78	3.99	220	inhibition in vivo at 20 mg/kg [19]: 27%; Ratio EC50 [10]: 18

Structure (SMILES)	Emax [1] [%]	EC50 [2] [µM]	EC50 [3] [nM]	also measured
CCO[C@H](Cc1cccc(C2=NOC(c3ccccc3)C2)c1)C(=O)O (stereo partly drawn)	–	–	25400	inhibition in vivo at 20 mg/kg [19]: 3%; Activity [20]: inactive
CCO[C@H](Cc1cccc(C2=NOC(Cc3ccccc3)C2)c1)C(=O)O (stereo partly drawn)	6	–	41400	Activity [20]: inactive
CCO[C@@H](Cc1cccc(C2=NOC(Cc3ccccc3)C2)c1)C(=O)O (stereo partly drawn)	104	21.6	6930	Ratio EC50 [10]: 3.1
CCO[C@@H](Cc1cccc(/C(C)=N/OCc2ccc(OC)cc2)c1)C(=O)O	179	4.06	175	–
CCO[C@@H](Cc1cccc(/C(C)=N/OCc2ccc(Br)cc2)c1)C(=O)O	150	2.7	36	–
CCO[C@H](Cc1cccc(C2=NOC(CCc3ccccc3)C2)c1)C(=O)O (stereo partly drawn)	217	44.5	25100	Ratio EC50 [10]: 1.8
CCO[C@@H](Cc1ccc(OCCc2ccc(OS(C)(=O)=O)cc2)cc1)C(=O)O	94	–	–	–
CCO[C@@H](Cc1cccc(/C(C)=N/OCc2cccc(Cl)c2)c1)C(=O)O	165	2.27	10	Ratio EC50 [10]: 227
CCO[C@@H](Cc1cccc(/C(C)=N/OCc2ccc(OS(C)(=O)=O)cc2)c1)C(=O)O	165	13.1	1610	–
CCO[C@@H](Cc1cccc(C2=NOC(CCc3ccccc3)C2)c1)C(=O)O (stereo partly drawn)	262	3.08	1850	Ratio EC50 [10]: 1.7
CCO[C@@H](Cc1cccc(/C(C)=N/OCc2ccc(I)cc2)c1)C(=O)O	139	0.674	40	–
CCO[C@H](Cc1cccc(/C(C)=N/OCc2ccccc2)c1)C(=O)O	8	–	1890	inhibition in vivo at 20 mg/kg [19]: 22.3%; Activity [20]: inactive
CCO[C@@H](Cc1cccc(/C(C)=N/OCc2ccc(Cl)cc2)c1)C(=O)O	386	7.22	28	inhibition in vivo at 0.3 mg/kg [11]: 60%; inhibition in vivo at 0.3 mg/kg [12]: 71%; Activity [13]: 1.9 g; inhibition in vivo at 3 mg/kg [4]: 76%; Activity [14]: 3.7 g; inhibition in vivo at 3 mg/kg [5]: 61%; inhibition in vivo at 0.3 mg/kg [15]: 19.3%; inhibition in vivo at 3 mg/kg [6]: 73%; Activity [7]: 3.7 g; inhibition in vivo at 0.3 mg/kg [16]: 63%; inhibition in vivo at 3 mg/kg [17]: 60.1%; Activity [8]: 5.3 g; Activity [9]: 2.5 g; Activity [18]: 6 g; Ratio EC50 [10]: 260
CCO[C@@H](Cc1cccc(C2=NOC(c3ccc(OC)cc3)C2)c1)C(=O)O (stereo partly drawn)	156	11.3	3190	–
CCO[C@@H](Cc1cccc(/C(C)=N/OCc2ccc(O)cc2)c1)C(=O)O	58	58.8	2940	–
CCO[C@@H](Cc1cccc(C2=NOC(c3ccc(Cl)cc3)C2)c1)C(=O)O (stereo partly drawn)	125	6.78	816	inhibition in vivo at 3 mg/kg [17]: 41.7%
